Source: patent publication US12509444B2, “Compounds and methods for CD73 modulation and indications therefor” (Plexxikon Inc., priority 2019, dated 2025)

Assays:
[1] = target: T1, Human CD73 (amino acid residues 27-549) (Homo sapiens, UniProt P21589); assay: CD73 enzymatic assay (luciferase-based indirect assay, CellTiter-Glo); format: biochemical; conditions: 0.4 nM CD73, 150 μM AMP, 1 hour at room temperature
T1 construct: Human CD73 (amino acid residues 27-549); His tag (N); made in house; host or cells: E. coli
T1 sequence (P21589 27-549): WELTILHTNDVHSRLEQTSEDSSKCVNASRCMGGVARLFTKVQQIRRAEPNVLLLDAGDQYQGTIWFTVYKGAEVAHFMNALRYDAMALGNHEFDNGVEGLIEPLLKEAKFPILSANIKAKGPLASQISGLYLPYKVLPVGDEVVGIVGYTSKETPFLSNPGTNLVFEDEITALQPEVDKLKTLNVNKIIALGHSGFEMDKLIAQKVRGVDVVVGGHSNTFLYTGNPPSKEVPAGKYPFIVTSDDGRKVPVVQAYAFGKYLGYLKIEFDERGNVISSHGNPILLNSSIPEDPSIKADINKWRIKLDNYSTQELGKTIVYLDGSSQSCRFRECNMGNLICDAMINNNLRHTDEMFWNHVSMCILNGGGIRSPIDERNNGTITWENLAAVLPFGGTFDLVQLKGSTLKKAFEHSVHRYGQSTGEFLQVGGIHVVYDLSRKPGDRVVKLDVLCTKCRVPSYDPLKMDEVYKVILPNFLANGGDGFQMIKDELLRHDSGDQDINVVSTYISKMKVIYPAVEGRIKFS
How it was run: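 Residual AMP inhibits luciferase, so luminescence reports CD73 turnover; read with CellTiter-Glo 2.0 plus 1 μM final ATP, 30 min. Reaction used 0.4 nM N-His CD73 (27-549, E. coli), 150 μM AMP, HEPES pH 7.4 with Tween 20, 1 h at room temperature. IC50 fitted by nonlinear regression.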

human CD73 = target: T2, human CD73 (Homo sapiens, UniProt P21589); assay: Inhibitor activity against CD73 in cell based assay (CD73 expressing CHO-K1 cells); conditions: CHO-K1 cells expressing human CD73, 150 μM AMP, 4 hours of incubation; read-out: CHO-K1 CELL VARIANT: CD73 IC50
T2 construct: expressed in transfected cells
T2 sequence (P21589 27-549): T1 sequence (P21589 27-549)
Experimental: Determine Inhibitor Activity Against CD73 in Cell Based Assay
CD73 expressing CHO-K1 cell clones were generated upon stable transfection of a plasmid expressing human CD73 under the control of CMV promoter. Cells were selected in Ham's F-12K (Kaighn's) media supplemented with 10% fetal bovine serum and 1 mg/ml G418 at 37° C. in a humidified incubator supplied with 5% CO2. The assays were performed as follows. Cells were seeded in a 96 well plate in 50 μL of culture media at a density of 1×10^4 per well. Compound at a maximal concentration of 5 mM was serially diluted 1:3 in DMSO for a total of 8 point titration. A 2 μL aliquot of each dilution point was added to 248 μL culture media and 25 µL was added to each well, providing 10 μM compound at the maximum concentration point. AMP was diluted in culture media and 25 μL was added to each well with a final concentration of 150 μM. 4 wells containing 0.2% DMSO treated cells and AMP served as high controls and 4 wells containing media only with 0.2% DMSO and AMP served as low controls. After 4 hours of incubation, 20 μL of the supernatant was transferred to a 384 well plate. AMP level in supernatant was measured indirectly by adding 5 μL of CellTiter-Glo® 2.0 reagent and 5 μL of ATP with a final concentration of 1 μM. Following incubation of plate at room temperature for 30 minutes, luminescent signal was read on a Tecan plate reader. The percentage inhibition at individual concentrations relative to high and low controls was calculated. The data were analyzed by using nonlinear regression to generate IC50 values.

SMILES	IC50 [1] [µM]	IC50 (human CD73) [µM]
O=C(NC1CCC1)N[C@@H]1CCN(c2cn[nH]c(=O)c2Cl)C1 [P-0085, (R)-1-(1-(5-chloro-6-oxo-1,6-dihydropyridazin-4-yl)pyrrolidin-3-yl)-3-cyclobutylurea]	0.001 to 10	10 to 100
O=C(NC1CCS(=O)(=O)CC1)N[C@@H]1CCN(c2cn[nH]c(=O)c2Cl)C1 [P-0086, (R)-1-(1-(5-chloro-6-oxo-1,6-dihydropyridazin-4-yl)pyrrolidin-3-yl)-3-(1,1-dioxidotetrahydro-2H-thiopyran-4-yl)urea]	0.001 to 10	10 to 100
O=C(CO)NC1CCC(NC(=O)N[C@@H]2CCN(c3cn[nH]c(=O)c3Cl)C2)CC1 (stereo partly drawn) [P-0088, (R)-N-(4-(3-(1-(5-chloro-6-oxo-1,6-dihydropyridazin-4-yl)pyrrolidin-3-yl)ureido)cyclohexyl)-2-hydroxyacetamide]	0.001 to 10	10 to 100
CC(C)(C)OC(=O)N1CCC(NC(=O)O[C@@H]2CCN(c3cn[nH]c(=O)c3Cl)C2)CC1 [P-0089, tert-butyl (R)-4-((((1-(5-chloro-6-oxo-1,6-dihydropyridazin-4-yl)pyrrolidin-3-yl)oxy)carbonyl)amino) piperidine-1-carboxylate]	0.001 to 10	0.001 to 10
CC(=O)N1CCC(NC(=O)O[C@@H]2CCN(c3cn[nH]c(=O)c3Cl)C2)CC1 [P-0090, (R)-1-(5-chloro-6-oxo-1,6-dihydropyridazin-4-yl)pyrrolidin-3-yl (1-acetylpiperidin-4-yl)carbamate]	0.001 to 10	0.001 to 10
CS(=O)(=O)NC1CCC(NC(=O)N[C@@H]2CCN(c3cn[nH]c(=O)c3Cl)C2)CC1 (stereo partly drawn) [P-0091, (R)-N-(4-(3-(1-(5-chloro-6-oxo-1,6-dihydropyridazin-4-yl)pyrrolidin-3-yl)ureido)cyclohexyl) methanesulfonamide]	0.001 to 10	0.001 to 10
O=C(NC1CC1)O[C@@H]1CCN(c2cn[nH]c(=O)c2Cl)C1 [P-0092, (R)-1-(5-chloro-6-oxo-1,6-dihydropyridazin-4-yl)pyrrolidin-3-yl cyclopropylcarbamate]	0.001 to 10	0.001 to 10
O=C(Nc1ccccc1)O[C@@H]1CCN(c2cn[nH]c(=O)c2Cl)C1 [P-0093, (R)-1-(5-chloro-6-oxo-1,6-dihydropyridazin-4-yl)pyrrolidin-3-yl phenylcarbamate]	0.001 to 10	0.001 to 10
O=C(Nc1ccc(Cl)cc1)O[C@@H]1CCN(c2cn[nH]c(=O)c2Cl)C1 [P-0094, (R)-1-(5-chloro-6-oxo-1,6-dihydropyridazin-4-yl)pyrrolidin-3-yl (4-chlorophenyl)carbamate]	0.001 to 10	10 to 100
O=C(NCC1CCCC1)O[C@@H]1CCN(c2cn[nH]c(=O)c2Cl)C1 [P-0095, (R)-1-(5-chloro-6-oxo-1,6-dihydropyridazin-4-yl)pyrrolidin-3-yl (cyclopentylmethyl)carbamate]	0.001 to 10	0.001 to 10
O=C(NCC(F)(F)F)O[C@@H]1CCN(c2cn[nH]c(=O)c2Cl)C1 [P-0096, (R)-1-(5-chloro-6-oxo-1,6-dihydropyridazin-4-yl)pyrrolidin-3-yl (2,2,2-trifluoroethyl)carbamate]	0.001 to 10	0.001 to 10
O=C(NC1CCOCC1)O[C@@H]1CCN(c2cn[nH]c(=O)c2Cl)C1 [P-0097, (R)-1-(5-chloro-6-oxo-1,6-dihydropyridazin-4-yl)pyrrolidin-3-yl (tetrahydro-2H-pyran-4-yl)carbamate]	0.001 to 10	0.001 to 10
CN(C(=O)O[C@@H]1CCN(c2cn[nH]c(=O)c2Cl)C1)C1CCCCC1 [P-0099, (R)-1-(5-chloro-6-oxo-1,6-dihydropyridazin-4-yl)pyrrolidin-3-yl cyclohexyl(methyl)carbamate]	0.001 to 10	10 to 100
O=C(NCc1ccccc1)O[C@@H]1CCN(c2cn[nH]c(=O)c2Cl)C1 [P-0100, (R)-1-(5-chloro-6-oxo-1,6-dihydropyridazin-4-yl)pyrrolidin-3-yl benzylcarbamate]	0.001 to 10	10 to 100
